Here are results for one compound from patent publication US6350812B1, “Hydrogels containing triblock copolymers, and preparation and use thereof” (Centre National de la Recherche Scientifique (CNRS), priority 1995, dated 2002).

Data set [1] in a line: Incorporation and retention of a hydrophobic substance in the hydrogel on addition of water and washing with water. In kind it is physicochemical. The note with it: acetone solution, water added. The protocol: 1 g of copolymer of Example 1.3 and 5 mg of commercial colorant Yellow OB are dissolved in 2 cm^3 of acetone.
This is a very hydrophobic, water-insoluble colorant. Distilled water (4 cm^3) is gradually added. A gel is obtained which occupies virtually all the volume of the starting acetone solution.
Hydrogels in which progesterone is incorporated were prepared in an analogous way. […] When administered by subcutaneous injection, the gel constitutes a bioresorbable soft implant which gradually releases the progesterone.

For data set [2] the following is noted: as described for the commercial colorant; cited from earlier work.

For the compound `Cc1ccccc1N=Nc1c(N)ccc2ccccc12` [Yellow OB], in data set [1], the “crystallisation / precipitation of the hydrophobic substance on addition of water or washing” value was “the colorant crystallizes during the addition of water”. Moreover, in data set [2], the “solubility of the colorant in water” value is given as “water-insoluble”.
